Test results as given in patent US20240351965A1, “Synthesis and Evaluation of Novel (4-Hydroxyphenyl) Substituted Carbocycles as Potent and Selective Estrogen Receptor Beta Agonists” (Marquette University, priority 2021, published 2024).
Where two headings read alike, the source gives them in different places.

Tests used:
CYP3A4 = target: T1, CYP3A4 (Homo sapiens, UniProt P08684); experiment: Cytochrome P450 inhibition (P450-Glo), CYP3A4; assay type: in vitro ADME
T1 construct: purchased Promega (P450-Glo Screening Systems)
T1 sequence (P08684 whole entry): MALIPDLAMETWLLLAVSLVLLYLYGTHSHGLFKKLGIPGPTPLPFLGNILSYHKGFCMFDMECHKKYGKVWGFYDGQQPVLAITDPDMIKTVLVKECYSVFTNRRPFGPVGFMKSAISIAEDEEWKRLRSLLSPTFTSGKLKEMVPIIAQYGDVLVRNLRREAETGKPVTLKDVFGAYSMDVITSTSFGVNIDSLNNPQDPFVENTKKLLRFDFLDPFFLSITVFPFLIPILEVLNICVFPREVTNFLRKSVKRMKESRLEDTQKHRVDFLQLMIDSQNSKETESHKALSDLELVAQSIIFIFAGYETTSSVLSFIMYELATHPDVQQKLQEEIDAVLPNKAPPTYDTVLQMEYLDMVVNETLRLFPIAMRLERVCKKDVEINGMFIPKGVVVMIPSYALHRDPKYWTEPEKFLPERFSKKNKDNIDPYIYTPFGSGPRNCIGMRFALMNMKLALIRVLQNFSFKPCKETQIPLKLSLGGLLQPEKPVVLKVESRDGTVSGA
Description: (§1) A screen of Cytochrome p450 inhibition was performed using the Promega P450-Glo™ Screening Systems. The Screening Systems' manual instructions were followed for CYP2C9, CYP2D6, or CYP3A4 enzymes with Luciferin-H, Luciferin-ME EGE or Luciferin-PPXE as substrates, respectively. The components of the kits, i.e., membrane enzymes, control enzymes, substrates and potassium phosphate buffer and or TRIS buffer were combined according to the System-manual's recommended final concentrations. Reactions were pre-incubated in white 96-well flat-bottom plates at 37° C. for 10 min before starting reactions with 2×NADPH regeneration buffer. The 96-well plates were incubated according to the recommended times in the linear range for each enzyme/substrate reaction. The reactions were stopped using 2× Luciferin Detection Reagent. After 20 minutes, the luciferase product was detected using a SpectraMax M5 Molecular Devices plate reader on the end-point luminescence setting. Positive control inhibitors for CYP2C9, CYP2D6, and CYP3A4 enzymes were assayed at a final concentration of 10 μM sulfaphenazole, 1 μM quinidine and 5 μM ketoconazole, respectively. Serial dilutions of 5a/b and (±)-11 were assayed at final concentrations of […], 7.812, 3.906, 1.953, 0.977, 0.488 μM. Inhibition data were analyzed using GraphPad Prism® 6 for Windows, ver. 6.07 (Jun. 12, 2015) software. Raw data were normalized against the control enzyme and untreated CYP enzyme means and then analyzed through non-linear regression using log (inhibitor) vs normalized dose-response curves to assess IC50s. Standard deviations were calculated from Best-fit values. Data were normalized to vehicle and positive controls (sulfaphenazole for CYP2C9, quinidine for CYP2D6, and ketoconazole for CYP3A4) and nonlinear square fits of the data were conducted using Prism 6 (GraphPad).

CYP2D6 = target: T2, CYP2D6 (Homo sapiens, UniProt P10635); experiment: Cytochrome P450 inhibition (P450-Glo), CYP2D6; assay type: in vitro ADME
T2 construct: purchased Promega (P450-Glo Screening Systems)
T2 sequence (P10635 whole entry): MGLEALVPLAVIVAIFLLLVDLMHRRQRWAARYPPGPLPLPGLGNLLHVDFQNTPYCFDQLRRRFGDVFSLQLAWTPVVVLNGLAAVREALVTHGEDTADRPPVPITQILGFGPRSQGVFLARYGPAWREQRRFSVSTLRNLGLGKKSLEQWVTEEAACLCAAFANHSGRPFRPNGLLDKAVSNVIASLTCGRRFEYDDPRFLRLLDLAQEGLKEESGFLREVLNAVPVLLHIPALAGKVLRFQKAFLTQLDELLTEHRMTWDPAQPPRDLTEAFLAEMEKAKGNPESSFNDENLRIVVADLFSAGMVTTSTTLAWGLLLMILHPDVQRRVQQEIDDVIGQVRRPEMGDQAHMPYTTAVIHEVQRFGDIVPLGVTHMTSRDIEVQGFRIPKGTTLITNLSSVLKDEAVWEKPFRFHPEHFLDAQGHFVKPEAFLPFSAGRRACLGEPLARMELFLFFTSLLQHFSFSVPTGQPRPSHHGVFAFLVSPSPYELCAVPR
Description: as §1

CYP2C9 = target: T3, CYP2C9 (Homo sapiens, UniProt P11712); experiment: Cytochrome P450 inhibition (P450-Glo), CYP2C9; assay type: in vitro ADME; details: for IC50: tested up to 62.5 μM
T3 construct: purchased Promega (P450-Glo Screening Systems)
T3 sequence (P11712 whole entry): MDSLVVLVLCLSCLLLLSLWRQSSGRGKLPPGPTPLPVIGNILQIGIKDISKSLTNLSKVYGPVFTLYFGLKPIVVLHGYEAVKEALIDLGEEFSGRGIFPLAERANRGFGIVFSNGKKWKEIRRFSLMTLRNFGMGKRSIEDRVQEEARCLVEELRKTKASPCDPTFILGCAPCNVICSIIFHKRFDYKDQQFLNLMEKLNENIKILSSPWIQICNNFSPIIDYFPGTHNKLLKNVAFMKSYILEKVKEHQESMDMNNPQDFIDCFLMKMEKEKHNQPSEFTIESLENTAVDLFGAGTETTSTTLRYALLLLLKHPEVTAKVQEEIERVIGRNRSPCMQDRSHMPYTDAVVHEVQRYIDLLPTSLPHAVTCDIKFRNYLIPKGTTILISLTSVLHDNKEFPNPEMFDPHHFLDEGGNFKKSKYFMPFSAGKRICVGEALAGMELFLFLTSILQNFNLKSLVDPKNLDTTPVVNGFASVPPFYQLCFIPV
Description: as §1

ERβ [1] = target: T4, ERβ (Homo sapiens, UniProt Q92731); details: cited from earlier work
Target sequence in this assay (Q92731 whole entry): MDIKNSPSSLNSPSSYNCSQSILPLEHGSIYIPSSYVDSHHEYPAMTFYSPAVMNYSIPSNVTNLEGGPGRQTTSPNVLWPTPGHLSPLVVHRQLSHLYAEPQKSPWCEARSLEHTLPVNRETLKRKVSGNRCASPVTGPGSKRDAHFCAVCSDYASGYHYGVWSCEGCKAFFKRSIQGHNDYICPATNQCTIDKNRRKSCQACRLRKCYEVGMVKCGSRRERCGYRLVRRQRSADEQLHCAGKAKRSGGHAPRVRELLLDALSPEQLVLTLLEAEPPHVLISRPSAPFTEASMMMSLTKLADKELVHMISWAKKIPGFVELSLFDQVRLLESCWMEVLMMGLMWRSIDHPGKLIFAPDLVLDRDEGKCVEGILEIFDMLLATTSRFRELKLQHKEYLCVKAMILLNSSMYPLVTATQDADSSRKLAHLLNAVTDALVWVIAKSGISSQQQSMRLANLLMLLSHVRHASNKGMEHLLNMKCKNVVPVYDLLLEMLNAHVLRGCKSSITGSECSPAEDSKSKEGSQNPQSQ

ERβ [2] = target: T4, ERβ; experiment: TR-FRET coactivator binding (recruitment) assay; assay type: biochemical
Target sequence in this assay (Q92731 264-498 limits assumed): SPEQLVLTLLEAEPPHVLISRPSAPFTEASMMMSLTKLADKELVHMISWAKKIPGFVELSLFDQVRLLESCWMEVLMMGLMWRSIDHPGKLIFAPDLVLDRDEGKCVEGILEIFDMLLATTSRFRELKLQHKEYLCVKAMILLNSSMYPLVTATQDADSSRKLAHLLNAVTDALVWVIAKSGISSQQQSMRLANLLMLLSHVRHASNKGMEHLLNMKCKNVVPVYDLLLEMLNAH

ERβ [3] = target: T4, ERβ; experiment: TR-FRET ligand binding displacement assay (LanthaScreen)
Target sequence in this assay (Q92731 264-498 limits assumed): as above

[4] = human, probe Luciferin-PPXE, read-out: CYP3A4 inhibition: not inhibited at concentrations up to (abstract)
[5] = read-out: CYP3A4 inhibition: no inhibition up to
[6] = human, probe Luciferin-ME EGE, read-out: CYP2D6 inhibition: not inhibited at concentrations up to (abstract)
[7] = read-out: CYP2D6 inhibition: no inhibition up to

Row | Structure (SMILES) | CYP3A4 binding in enzyme kinetic inhibition assay (CYP3A4) | IC50 (CYP3A4; [4]) | IC50 (CYP3A4; [5]) | CYP2D6 binding in enzyme kinetic inhibition assay (CYP2D6) | IC50 (CYP2D6; [6]) | IC50 (CYP2D6; [7]) | CYP2C9 binding in enzyme kinetic inhibition assay (CYP2C9) | IC50 (CYP2C9) | ERβ selectivity (literature) (ERβ [1]) | EC50 (ERβ [1]; read-out: EC50 (literature, ERβ agonist)) | IC50 (ERβ [2]) | IC50 (ERβ [3])
1 | Oc1ccc(C2CCC3(CC2)CC(O)C3)cc1 (racemic) [(±)-11, 7-(4-hydroxyphenyl)spiro[3.5]nonan-2-ol] | does not bind to any of these CYP450 enzymes with significant activity | > 62.5 µM | > 62.5 µM | does not bind to any of these CYP450 enzymes with significant activity | > 62.5 µM | > 62.5 µM | does not bind to any of these CYP450 enzymes with significant activity | > 62.5 µM |  |  |  | 
2 | OCC12CC3CC(C1)C(c1ccc(O)cc1)C(C3)C2 (stereo not shown) [5a/b, 4-(4-Hydroxyphenyl)tricyclo[3.3.1.1^3,7]decane-1-methanol] | weak binding only to CYP2C9 | > 62.5 µM | > 62.5 µM | weak binding only to CYP2C9 | > 62.5 µM | > 62.5 µM |  | 10 ± 0.5 µM |  |  |  | 
3 | OCC1CCCC(c2ccc(O)cc2)CC1 (stereo not shown) [ISP163] |  |  |  |  |  |  |  |  | 318 fold | 0.033 ± 0.005 µM |  | 
4 | O=C1CC2(CCC(c3ccc(O)cc3)CC2)C1 [compound 10, 7-(4-Hydroxyphenyl)spiro[3.5]nonan-2-one] |  |  |  |  |  |  |  |  |  |  | 1.64 ± 0.301 µM | 2.22 ± 2.66 µM
